# System: RS411 cells
# Test: Cell Viability CTG Assay (CellTiter Glo) in RS411 cells
# Assay type: cell-based
# Conditions: Homo sapiens, RS4-11, 24 h, duration 1 day
# Outline: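 Read-out was CellTiter Glo luminescence, taken after 10 min at RT, following 1-4 days of incubation at 37 °C, 5% CO2. Cells were plated at 1000 per well with an 11-point, 3-fold series starting at 10 μM final in 0.2% DMSO. IC50 values are given as letter-code ranges.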
row,IC50 [nM],SMILES
1,> 1000,CN1[C@@H](CN[C@H]2CC[C@H](C(=O)N3CCC(CCc4ccc5c(c4)n(C)c(=O)n5C4CCC(=O)NC4=O)CC3)CC2)[C@H](c2cccc(Cl)c2F)[C@]2(C(=O)Nc3cc(Cl)ccc32)C12CCCCC2 (stereo partly drawn) [I-156]
2,< 50,Cn1c(=O)n(C2CCC(=O)NC2=O)c2ccc(CCCCCNC(=O)[C@@H]3CCC(NC(=O)[C@@H]4NC5(CCC(C)(C)CC5)[C@@]5(C(=O)Nc6cc(Cl)ccc65)[C@H]4c4ccnc(Cl)c4F)CO3)cc21 (stereo partly drawn) [I-157]
3,< 50,CN1[C@@H](C(=O)N[C@H]2CC[C@H](CN3CCC4(CC3)CN(CCc3ccc5c(c3)n(C)c(=O)n5C3CCC(=O)NC3=O)C4)CC2)[C@H](c2cccc(Cl)c2F)[C@]2(C(=O)Nc3cc(Cl)ccc32)C12CCCCC2 (stereo partly drawn) [I-158]
4,< 50,Cn1c(=O)n(C2CCC(=O)NC2=O)c2cccc(CCN3CC4(CCN(C[C@H]5CC[C@H](NC(=O)[C@@H]6NC7(CCCCC7)[C@@]7(C(=O)Nc8cc(Cl)ccc87)[C@H]6c6cccc(Cl)c6F)CC5)CC4)C3)c21 (stereo partly drawn) [I-159]
5,< 50,CN(CCCCCc1ccc2c(c1)n(C)c(=O)n2C1CCC(=O)NC1=O)Cc1ccc(NC(=O)[C@@H]2NC3(CCCCC3)[C@@]3(C(=O)Nc4cc(Cl)ccc43)[C@H]2c2cccc(Cl)c2F)c(F)c1 (stereo partly drawn) [I-161]
6,< 50,Cn1c(=O)n(C2CCC(=O)NC2=O)c2ccc(CCCCCNC(=O)c3ccc(NC(=O)[C@@H]4NC5(CCCCC5)[C@@]5(C(=O)Nc6cc(Cl)ccc65)[C@H]4c4cccc(Cl)c4F)c4c3OCCO4)cc21 (stereo partly drawn) [I-163]
7,< 50,CC1(C)CCC2(CC1)N[C@@H](C(=O)N[C@H]1CC[C@H](CN3CCC(C#Cc4ccn5c(N6CCC(=O)NC6=O)cnc5c4)CC3)CC1)[C@H](c1ccnc(Cl)c1F)[C@]21C(=O)Nc2cc(Cl)ccc21 [I-164]
8,> 1000,Cn1c(=O)n(C2CCC(=O)NC2=O)c2ccc(CCC3CCN(C(=O)c4coc([C@@H]5NC6(CCCCC6)[C@@]6(C(=O)Nc7cc(Cl)ccc76)[C@H]5c5cccc(Cl)c5F)n4)CC3)cc21 (stereo partly drawn) [I-165]
9,500 to 1000,CC(C)[C@@H](CS(=O)(=O)C(C)C)N1C(=O)[C@@](C)(CC(=O)N[C@H]2CC[C@H](CN3CCC(C#Cc4ccn5c(N6CCC(=O)NC6=O)cnc5c4)CC3)CC2)C[C@H](c2cccc(Cl)c2)[C@H]1c1ccc(Cl)cc1 [I-166]
10,> 1000,CC(C)(C)C[C@@H]1N[C@@H](C(=O)N[C@H]2CC[C@H](CN3CCC(C#Cc4cccn5c(N6CCC(=O)NC6=O)cnc45)CC3)CC2)[C@H](c2cccc(Cl)c2F)[C@@]1(C#N)c1ccc(Cl)cc1F [I-167]
11,< 50,COc1cc2c(cc1OC(C)C)C(c1ccc(Cl)cc1)N(c1ccc(N(C)C[C@H]3CC[C@H](N(C)C(=O)CCCCc4ccc5c(c4)n(C)c(=O)n5C4CCC(=O)NC4=O)CC3)cc1)C(=O)C2 (stereo partly drawn) [I-168]
12,> 1000,Cn1c(=O)n(C2CCC(=O)NC2=O)c2ccc(C#CCCN3CCC(NC(=O)[C@@H]4NC5(CCCCC5)[C@@]5(C(=O)Nc6cc(Cl)ccc65)[C@H]4c4cccc(Cl)c4F)CC3)cc21 (stereo partly drawn) [I-169]
13,100 to 500,CC(C)[C@@H](CS(=O)(=O)C(C)C)N1C(=O)[C@@](C)(CC(=O)N[C@H]2CC[C@H](CN3CCC(C#Cc4cccn5c(N6CCC(=O)NC6=O)cnc45)CC3)CC2)C[C@H](c2cccc(Cl)c2)[C@H]1c1ccc(Cl)cc1 [I-170]
14,< 50,Cn1c(=O)n(C2CCC(=O)NC2=O)c2ccc(CC[C@H]3CC[C@H](N4CCC(NC(=O)[C@@H]5NC6(CCCCC6)[C@@]6(C(=O)Nc7cc(Cl)ccc76)[C@H]5c5cccc(Cl)c5F)CC4)CC3)cc21 (stereo partly drawn) [I-171]
15,> 1000,Cn1c(=O)n(C2CCC(=O)NC2=O)c2ccc(CCCCCOC3CCN(C(=O)c4coc([C@@H]5NC6(CCCCC6)[C@@]6(C(=O)Nc7cc(Cl)ccc76)[C@H]5c5cccc(Cl)c5F)n4)CC3)cc21 (stereo partly drawn) [I-172]
16,< 50,Cn1c(=O)n(C2CCC(=O)NC2=O)c2ccc(C3CCN(C(=O)[C@H]4CC[C@H](NC(=O)[C@@H]5NC6(CCCCC6)[C@@]6(C(=O)Nc7cc(Cl)ccc76)[C@H]5c5cccc(Cl)c5F)CC4)CC3)cc21 (stereo partly drawn) [I-174]
17,> 1000,COc1cc2c(cc1OC(C)C)C(c1ccc(Cl)cc1)N(c1ccc(N(C)C[C@H]3CC[C@H](N(C)CCOCCOCC(=O)N[C@H](C(=O)N4C[C@H](O)C[C@H]4C(=O)NCc4ccc(-c5scnc5C)cc4)C(C)(C)C)CC3)cc1)C(=O)C2 (stereo partly drawn) [I-175]
18,< 50,Cn1c(=O)n(C2CCC(=O)NC2=O)c2ccc(C3CCN(C(=O)c4ccc(NC(=O)[C@@H]5NC6(CCCCC6)[C@@]6(C(=O)Nc7cc(Cl)ccc76)[C@H]5c5cccc(Cl)c5F)cc4)CC3)cc21 (stereo partly drawn) [I-176]
19,< 50,Cn1c(=O)n(C2CCC(=O)NC2=O)c2ccc(C3CCN(C(=O)[C@H]4CC[C@H](NC(=O)[C@@H]5NC6(CCC(C)(C)CC6)[C@@]6(C(=O)Nc7cc(Cl)ccc76)[C@H]5c5ccnc(Cl)c5F)CC4)CC3)cc21 (stereo partly drawn) [I-177]
20,< 50,Cn1c(=O)n(C2CCC(=O)NC2=O)c2ccc(N3CCN(C(=O)[C@H]4CC[C@H](NC(=O)[C@@H]5NC6(CCCCC6)[C@@]6(C(=O)Nc7cc(Cl)ccc76)[C@H]5c5cccc(Cl)c5F)CC4)CC3)cc21 (stereo partly drawn) [I-178]
21,< 50,COc1cc2c(cc1OC(C)C)[C@H](c1ccc(Cl)cc1)N(c1ccc(N(C)CC3CCN(C(=O)CCCCCc4ccc5c(c4)n(C)c(=O)n5C4CCC(=O)NC4=O)CC3)cc1)C(=O)C2 (stereo partly drawn) [I-179]

row,IC50 [nM],SMILES
1,< 50,Cn1c(=O)n(C2CCC(=O)NC2=O)c2ccc(CCN3CCN(C(=O)[C@H]4CC[C@H](NC(=O)[C@@H]5NC6(CCCCC6)[C@@]6(C(=O)Nc7cc(Cl)ccc76)[C@H]5c5cccc(Cl)c5F)CC4)CC3)cc21 (stereo partly drawn) [I-180]
2,> 1000,COc1cc2c(cc1OC(C)C)[C@H](c1ccc(Cl)cc1)N(c1ccc(N(C)CC3CCN(C(=O)Cc4ccc5c(c4)n(C)c(=O)n5C4CCC(=O)NC4=O)CC3)cc1)C(=O)C2 (stereo partly drawn) [I-181]
3,< 50,COc1cc2c(cc1OC(C)C)[C@H](c1ccc(Cl)cc1)N(c1ccc(N(C)CC3CCN(C(=O)CCCc4ccc5c(c4)n(C)c(=O)n5C4CCC(=O)NC4=O)CC3)cc1)C(=O)C2 (stereo partly drawn) [I-182]
4,< 50,Cn1c(=O)n(C2CCC(=O)NC2=O)c2ccc(CN3CCN(C(=O)[C@H]4CC[C@H](NC(=O)C5NC6(CCCCC6)[C@@]6(C(=O)Nc7cc(Cl)ccc76)[C@H]5c5cccc(Cl)c5F)CC4)CC3)cc21 (stereo partly drawn) [I-183]
5,50 to 100,O=C1CCN(c2cnc3cc(NCCCCCNC[C@H]4CC[C@H](NC(=O)[C@@H]5NC6(CCCCC6)[C@@]6(C(=O)Nc7cc(Cl)ccc76)[C@H]5c5cccc(Cl)c5F)CC4)ccn23)C(=O)N1 [I-184]
6,< 50,Cc1ccc2c(c1C1CCN(C[C@H]3CC[C@H](NC(=O)[C@@H]4NC5(CCCCC5)[C@@]5(C(=O)Nc6cc(Cl)ccc65)[C@H]4c4cccc(Cl)c4F)CC3)CC1)n(C)c(=O)n2C1CCC(=O)NC1=O (stereo partly drawn) [I-185]
7,< 50,Cn1c(=O)n(C2CCC(=O)NC2=O)c2ccc(C3CCN(C[C@H]4CC[C@H](NC(=O)[C@@H]5NC6(CCCCC6)[C@@]6(C(=O)Nc7cc(Cl)ccc76)[C@H]5c5cccc(Cl)c5F)CC4)CC3)cc21 (stereo partly drawn) [I-186]
8,< 50,COc1ccc2c(c1C1CCN(C[C@H]3CC[C@H](NC(=O)[C@@H]4NC5(CCCCC5)[C@@]5(C(=O)Nc6cc(Cl)ccc65)[C@H]4c4cccc(Cl)c4F)CC3)CC1)n(C)c(=O)n2C1CCC(=O)NC1=O (stereo partly drawn) [I-187]
9,> 1000,Cc1ncsc1-c1ccc(CNC(=O)[C@@H]2C[C@@H](O)CN2C(=O)[C@@H](NC(=O)COCCOCC2CCN(C[C@H]3CC[C@H](NC(=O)[C@@H]4NC5(CCCCC5)[C@@]5(C(=O)Nc6cc(Cl)ccc65)[C@H]4c4cccc(Cl)c4F)CC3)CC2)C(C)(C)C)cc1 [I-188]
10,< 50,Cn1c(=O)n(C2CCC(=O)NC2=O)c2ccc(CCCCCN3CCc4cc(NC(=O)[C@@H]5NC6(CCCCC6)[C@@]6(C(=O)Nc7cc(Cl)ccc76)[C@H]5c5cccc(Cl)c5F)ccc4C3)cc21 (stereo partly drawn) [I-189]
11,< 50,COc1cc2c(cc1OC(C)C)C(c1ccc(Cl)cc1)N(c1ccc(N(C)C[C@H]3CC[C@H](N4CCN(CCCCCc5cccc6c5n(C)c(=O)n6C5CCC(=O)NC5=O)C(=O)C4)CC3)cc1)C(=O)C2 (stereo partly drawn) [I-192]
12,< 50,COc1cc2c(cc1OC(C)C)C(c1ccc(Cl)cc1)N(c1ccc(N(C)C[C@H]3CC[C@H](N4CCN(CCCCCc5ccc6c(c5)n(C)c(=O)n6C5CCC(=O)NC5=O)C(=O)C4)CC3)cc1)C(=O)C2 (stereo partly drawn) [I-193]
13,< 50,COc1cc2c(cc1OC(C)C)C(c1ccc(Cl)cc1)N(c1ccc(N(C)C[C@H]3CC[C@H](N4CCC(CCc5ccc6c(c5)n(C)c(=O)n6C5CCC(=O)NC5=O)CC4)CC3)cc1)C(=O)C2 (stereo partly drawn) [I-194]
14,> 1000,COc1cc2c(cc1OC(C)C)C(c1ccc(Cl)cc1)N(c1ccc(N(C)C[C@H]3CC[C@H](N(C)CCc4ccc5c(c4)n(C)c(=O)n5C4CCC(=O)NC4=O)CC3)cc1)C(=O)C2 (stereo partly drawn) [I-195]
15,< 50,Cn1c(=O)n(C2CCC(=O)NC2=O)c2ccc(CCN3CCN(C[C@H]4CC[C@H](NC(=O)[C@@H]5NC6(CCC(C)(C)CC6)[C@@]6(C(=O)Nc7cc(Cl)ccc76)[C@H]5c5ccnc(Cl)c5F)CC4)CC3)cc21 (stereo partly drawn) [I-196]
16,> 1000,COc1cc2c(cc1OC(C)C)[C@@H](c1ccc(Cl)cc1)N(c1ccc(N(C)CC3CCN(CCCCCCc4ccc5c(c4)n(C)c(=O)n5C4CCC(=O)NC4=O)CC3)cc1)C(=O)C2 (stereo partly drawn) [I-197]
17,< 50,Cn1c(=O)n(C2CCC(=O)NC2=O)c2ccc(C#CCCN3CCN(C[C@H]4CC[C@H](NC(=O)[C@@H]5NC6(CCC(C)(C)CC6)[C@@]6(C(=O)Nc7cc(Cl)ccc76)[C@H]5c5ccnc(Cl)c5F)CC4)CC3)cc21 (stereo partly drawn) [I-198]
18,> 1000,CC(C)(C)C[C@@H]1N[C@@H](C(=O)N[C@H]2CC[C@H](CNCCCC#Cc3ccc4c(N5CCC(=O)NC5=O)cncc4c3)CC2)[C@H](c2cccc(Cl)c2F)[C@@]1(C#N)c1ccc(Cl)cc1F [I-199]
19,< 50,COc1cc2c(cc1OC(C)C)[C@H](c1ccc(Cl)cc1)N(c1ccc(N(C)CC3CCN(CCCCCCc4ccc5c(c4)n(C)c(=O)n5C4CCC(=O)NC4=O)CC3)cc1)C(=O)C2 (stereo partly drawn) [I-201]
20,> 1000,CC(C)(C)C[C@@H]1N[C@@H](C(=O)N[C@H]2CC[C@H](CNCCCC#Cc3cccn4c(N5CCC(=O)NC5=O)cnc34)CC2)[C@H](c2cccc(Cl)c2F)[C@@]1(C#N)c1ccc(Cl)cc1F [I-202]
21,< 50,CC1(C)CCC2(CC1)NC(C(=O)N[C@H]1CC[C@H](CN3CCN(CCC#Cc4cccn5c(N6CCC(=O)NC6=O)cnc45)CC3)CC1)[C@H](c1ccnc(Cl)c1F)[C@]21C(=O)Nc2cc(Cl)ccc21 (stereo partly drawn) [I-203]
